Assay results: the supplement of paper PMC11061612

What was measured:
[1] = tested on: 22RV1 (Prostate Carcinoma); assay: Bliss excess, mean over the matrix (fraction); higher = more synergy
Summary of the method: (§1)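 Bliss excess equals the observed combination effect minus the expected value EA + EB − EA·EB, where EA and EB are the effects of each agent alone. Combination Emax is the second-highest inhibition within the matrix. Inhibition was scaled from CellTiter-Glo 2.0 luminescence, with 0 set by vehicle wells and 1 by blank wells, after 72 hours of two-drug dosing of cells plated in 1536-well plates.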

769-P (Kidney Carcinoma) = assay: as above
Summary of the method: as §1

[2] = tested on: MHH-ES-1 (Ewing's Sarcoma); assay: as above
Summary of the method: as §1

[3] = tested on: NCI-H1703 (Squamous Cell Lung Carcinoma); assay: as above
Summary of the method: as §1

[4] = tested on: 22RV1 (Prostate Carcinoma); assay: combination Emax (second highest fraction inhibited in the dose matrix, 72 h); higher = more inhibition; extreme values may be limits of the assay
Summary of the method: as §1

EB2 (Burkitt's Lymphoma) = assay: as above
Summary of the method: as §1

HCC70 (Breast Carcinoma) = assay: as above
Summary of the method: as §1

IM-9 (Non-Cancerous) = assay: as above
Summary of the method: as §1

[5] = tested on: JHU-022 (Oral Cavity Carcinoma); assay: as above
Summary of the method: as §1

[6] = tested on: KYSE-220 (Esophageal Squamous Cell Carcinoma); assay: as above
Summary of the method: as §1

[7] = tested on: LU-165 (Small Cell Lung Carcinoma); assay: as above
Summary of the method: as §1

[8] = tested on: MDA-MB-436 (Breast Carcinoma); assay: as above
Summary of the method: as §1

[9] = tested on: MHH-ES-1 (Ewing's Sarcoma); assay: as above
Summary of the method: as §1

[10] = tested on: NCI-H1651 (Lung Adenocarcinoma); assay: as above
Summary of the method: as §1

[11] = tested on: NCI-H1703 (Squamous Cell Lung Carcinoma); assay: as above
Summary of the method: as §1

[12] = tested on: NCI-H2087 (Lung Adenocarcinoma); assay: as above
Summary of the method: as §1

[13] = tested on: NCI-H441 (Lung Adenocarcinoma); assay: as above
Summary of the method: as §1

PEO1 (Ovarian Carcinoma) = assay: as above
Summary of the method: as §1

[14] = tested on: SW620 (Colorectal Carcinoma); assay: as above
Summary of the method: as §1

WM1552C (Melanoma) = assay: as above
Summary of the method: as §1

SMILES: C[C@@H](c1ccc2nccn2c1)n1nnc2ncc(-c3cnn(C)c3)nc21 [Savolitinib] + Cc1c2c(nn1C)CSCc1cc(n(C)n1)CSc1cc(c3ccccc3c1)OCCCc1c(C(=O)O)n(C)c3c-2c(Cl)ccc13 [AZD5991] (first compound max 1 µM, 7x7, partner max 1 µM)
- Bliss excess [1]: -0.0204
- Bliss excess (769-P (Kidney Carcinoma)): -0.0252
- Bliss excess [2]: -0.0486
- Bliss excess [3]: -0.0063
- combination Emax [4]: 0.34
- combination Emax (EB2 (Burkitt's Lymphoma)): 0.208
- combination Emax (HCC70 (Breast Carcinoma)): 0.844
- combination Emax (IM-9 (Non-Cancerous)): 0.573
- combination Emax [5]: 0.132
- combination Emax [6]: 0.164
- combination Emax [7]: 0.213
- combination Emax [8]: 0.18
- combination Emax [9]: 0.38
- combination Emax [10]: 0.183
- combination Emax [11]: 0.852
- combination Emax [12]: 0.204
- combination Emax [13]: 0.221
- combination Emax (PEO1 (Ovarian Carcinoma)): 0.218
- combination Emax [14]: 0.167
- combination Emax (WM1552C (Melanoma)): 0.554
